According to patent US8133884B2, “Compounds for the treatment of hepatitis C” (priority 2008, dated 2012):

The compounds below were run against T1, HCV NS5B (Hepatitis C virus genotype 1b, UniProt Q9WMX2) (assay: Modified HCV NS5B RdRp enzyme assay (preincubation protocol)). Settings: class symbol.
T1 construct: The protein was expressed with an 18 amino acid C-terminal truncation to enhance the solubility; made in house; host or cells: E. coli BL21(DE3)
Type: biochemical
Procedure: The cDNA encoding the NS5B protein of HCV, genotype 1b, was cloned into the pET21a expression vector. The protein was expressed with an 18 amino acid C-terminal truncation to enhance the solubility. The E. coli competent cell line BL21(DE3) was used for expression of the protein. Cultures were grown at 37° C. for ˜4 hours until the cultures reached an optical density of 2.0 at 600 nm. The cultures were cooled to 20° C. and induced with 1 mM IPTG. Fresh ampicillin was added to a final concentration of 50 μg/ml and the cells were grown overnight at 20° C.
Cell pellets (3 L) were lysed for purification to yield 15-24 mgs of purified NS5B. The lysis buffer consisted of 20 mM Tris-HCl, pH 7.4, 500 mM NaCl, 0.5% triton X-100, 1 mM DTT, 1 mM EDTA, 20% glycerol, 0.5 mg/ml lysozyme, 10 mM MgCl2, 15 ug/ml deoxyribonuclease I, and Complete TM protease inhibitor tablets (Roche). After addition of the lysis buffer, frozen cell pellets were resuspended using a tissue homogenizer. To reduce the viscosity of the sample, aliquots of the lysate were sonicated on ice using a microtip attached to a Branson sonicator. The sonicated lysate was centrifuged at 100,000×g for 1 hr at 4° C. and filtered through a 0.2 μm filter unit (Corning).
The protein was purified using three sequential chromatography steps: Heparin sepharose CL-6B, polyU sepharose 4B, and […] SP sepharose (Pharmacia). The chromatography buffers were identical to the lysis buffer but contained no lysozyme, deoxyribonuclease I, MgCl2 or protease inhibitor and the NaCl concentration of the buffer was adjusted according to the requirements for charging the protein onto the column. Each column was eluted with a NaCl gradient which varied in length from 5-50 column volumes depending on the column type. After the final chromatography step, the resulting purity of the enzyme is >90% based on SDS-PAGE analysis. The enzyme was aliquoted and stored at −80° C.
HCV RdRp genotype 1b assays were run in a final volume of 60 μl in 96 well plates (Costar 3912). The assay buffer is composed of 20 mM Hepes, pH 7.5, 2.5 mM KCl, 2.5 mM MgCl2, 1 mM DTT, 1.6 U RNAse inhibitor (Promega N2515), 0.1 mg/ml BSA (Promega R3961), and 2% glycerol. All compounds were serially diluted (3-fold) in DMSO and diluted further in water such that the final concentration of DMSO in the assay was 2%. HCV RdRp genotype 1b enzyme was used at a final concentration of 28 nM. A polyA template was used at 6 nM, and a biotinylated oligo-dT12 primer was used at 180 nM final concentration. Template was obtained commercially (Amersham 27-4110). Biotinylated primer was prepared by Sigma Genosys. 3H-UTP was used at 0.6 μCi (0.29 μM total UTP). Reactions were initiated by the addition of enzyme, incubated at 30° C. for 60 min, and stopped by adding 25 μl of 50 mM EDTA containing SPA beads (4 μg/μl, Amersham RPNQ 0007). Plates were read on a Packard TOPCOUNT® NXT after >1 hr incubation at room temperature.
A modified enzyme assay was performed essentially as described for the standard enzyme assay except for the following: The biotinylated oligo dT12 primer was precaptured on streptavidin-coated SPA beads by mixing primer and beads in assay buffer and incubating at room temperature for one hour. Unbound primer was removed after centrifugation. The primer-bound beads were resuspended in 20 mM Hepes buffer, pH 7.5 and used in the assay at final concentrations of 20 nM primer and 0.67 μg/μl beads. Order of addition in the assay: enzyme (14 nM) was added to diluted compound followed by the addition of a mixture of template (0.2 nM), 3H-UTP (0.6 μCi, 0.29 μM), and primer-bound beads, to initiate the reaction; concentrations given are final. Reactions were allowed to proceed for 4 hours at 30° C.
IC50 values for compounds were determined using seven different [I]. IC50 values were calculated from the inhibition using the formula y=A+((B−A)/(1+((C/x)^D))).

T1 sequence (Q9WMX2 2420-2992): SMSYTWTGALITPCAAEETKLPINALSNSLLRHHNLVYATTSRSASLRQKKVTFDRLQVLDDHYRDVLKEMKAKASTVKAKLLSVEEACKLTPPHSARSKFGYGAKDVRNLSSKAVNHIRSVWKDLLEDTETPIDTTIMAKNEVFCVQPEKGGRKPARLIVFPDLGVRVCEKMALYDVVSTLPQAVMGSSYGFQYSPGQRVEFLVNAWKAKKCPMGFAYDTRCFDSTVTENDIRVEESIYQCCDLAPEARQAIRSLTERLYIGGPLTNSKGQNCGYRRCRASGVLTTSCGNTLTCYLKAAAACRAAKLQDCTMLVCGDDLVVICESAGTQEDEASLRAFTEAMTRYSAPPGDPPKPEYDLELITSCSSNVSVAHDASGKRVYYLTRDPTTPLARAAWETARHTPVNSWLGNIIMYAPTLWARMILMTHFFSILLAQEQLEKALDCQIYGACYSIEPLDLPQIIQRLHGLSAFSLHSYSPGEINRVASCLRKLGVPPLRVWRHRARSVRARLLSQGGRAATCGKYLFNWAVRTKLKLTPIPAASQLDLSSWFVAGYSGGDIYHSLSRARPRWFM

SMILES	IC50 [nM]
CCOC(=O)c1cnn(C2CCOCC2)c1C1=Cc2cc(OC)ccc2-c2c(C3CCCCC3)c3ccc(C(=O)NS(=O)(=O)C(C)C)cc3n2C1	1.7 to 500
CCOC(=O)c1cnn(C2CCC2)c1C1=Cc2cc(OC)ccc2-c2c(C3CCCCC3)c3ccc(C(=O)OC(C)(C)C)cc3n2C1	> 500
CCOC(=O)c1cnn(C2CCC2)c1C1=Cc2cc(OC)ccc2-c2c(C3CCCCC3)c3ccc(C(=O)NS(=O)(=O)CC(C)C)cc3n2C1	1.7 to 500
COc1ccc2c(c1)C=C(c1c(C(=O)O)cnn1C1CCC1)Cn1c-2c(C2CCCCC2)c2ccc(C(=O)NS(=O)(=O)CC(C)C)cc21	1.7 to 500
COc1ccc2c(c1)C=C(c1c(C(=O)N3CCCN(C)CC3)cnn1C1CCC1)Cn1c-2c(C2CCCCC2)c2ccc(C(=O)NS(=O)(=O)C(C)C)cc21	1.7 to 500
COc1ccc2c(c1)C=C(c1c(C(=O)O)cnn1C1CCC1)Cn1c-2c(C2CCCCC2)c2ccc(C(=O)NS(=O)(=O)C(C)C)cc21	1.7 to 500
CCN1CC2CC1CN2C(=O)c1c(C2=Cc3cc(OC)ccc3-c3c(C4CCCCC4)c4ccc(C(=O)NS(=O)(=O)C(C)C)cc4n3C2)ncn1C1CC1 (stereo not drawn)	1.7 to 500
CCOC(=O)c1cnn(C2CCOCC2)c1C1=Cc2cc(OC)ccc2-c2c(C3CCCCC3)c3ccc(C(=O)O)cc3n2C1	1.7 to 500
CCOC(=O)c1cnn(C2CCC2)c1C1=Cc2cc(OC)ccc2-c2c(C3CCCCC3)c3ccc(C(=O)NS(=O)(=O)C(C)C)cc3n2C1	1.7 to 500
COc1ccc2c(c1)C=C(c1c(C(=O)O)cnn1C1CCOCC1)Cn1c-2c(C2CCCCC2)c2ccc(C(=O)NS(=O)(=O)CC(C)C)cc21	1.7 to 500
CCOC(=O)c1cnn(C2CCOCC2)c1C1=Cc2cc(OC)ccc2-c2c(C3CCCCC3)c3ccc(C(=O)NS(=O)(=O)CC(C)C)cc3n2C1	1.7 to 500
COc1ccc2c(c1)C=C(c1c(C(=O)O)cnn1C1CCOCC1)Cn1c-2c(C2CCCCC2)c2ccc(C(=O)NS(=O)(=O)C(C)C)cc21	1.7 to 500
